Measured values published in paper PMC6887851, “A Chemical-Intervention Strategy To Circumvent Peptide Hydrolysis by D-Stereoselective Peptidases” (Journal of Medicinal Chemistry, 2019).
Where a SMILES comes first, the peptide text is derived from it. [ ]: non-standard residue; d: D form. The star is where a group is joined. dDab = NCC[C@@H](N)C(=O)O; Octanoyl = CCCCCCCC(=O)*; Dab = NCC[C@H](N)C(=O)O

How the values were obtained:
S. aureus NCTC 10788 = type: cell-based, Staphylococcus aureus; conditions: NCTC 10788, 18 h
Experimental: (§1) Minimum inhibitory concentrations (MICs) were determined according to Clinical and Standards Laboratory Institute (CLSI) guidelines. Briefly, peptides were dissolved in Muller–Hinton broth (MHB) and serial dilutions made across a 96-well plate. Each well was inoculated with a suspension of the required bacterial strain to reach a final inoculum of 5 × 10^5 colony forming units per mL. The MIC was taken as the lowest concentration with no visible (cloudy suspension) growth after 18 h. The antimicrobial activity of each peptide was determined in duplicate in three independent experiments and found to be consistent across all experiments.

D-peptidase BogQ = experiment: Peptide hydrolysis assay with BogQ (UPLC–MS cleavage ratio); type: in vitro ADME; conditions: BogQ 20 nM, substrate 50 μM, 25% PBS buffer pH 7.4, 37 °C, end-point after 1 h incubation, cleavage ratio by UPLC–MS, two independent experiments
Experimental: (§2) For expression of D-peptidases, the recombinant strain E. coli BL21 carrying pET-28a-bogQ or pET-24a-triFpep was cultured overnight at 37 °C in LB medium. This was diluted 1:100 into 100 mL of LB medium containing 50 μg/mL kanamycin and incubated at 37 °C until OD600 = 0.4–0.6 was reached. The culture was incubated at 15 °C for 30 min, and isopropyl β-D-1-thiogalactopyranoside was added to a final concentration of 200 μM.[17] The target proteins purified using Ni-NTA purification. The assay mixture (total volume 30 μL in 25% PBS buffer, pH 7.4), containing purified protein (BogQ, 20 nM or TriFpep 200 nM) and synthetic analogues (50 μM), was incubated for 1 h (BogQ) or 24 h (TriFpep) at 37 °C. Reactions were quenched with three volumes of cold methanol (90 μL) and centrifuged at 15 000 rpm for 10 min to precipitate protein. The supernatant (2 μL) was subjected to UPLC–MS analysis for the determination of cleavage ratios.[17] Assays were repeated in two independent experiments and results consistent across both.

[1] = test system: TriFpep (peptidase domain of D-peptidase TriF); experiment: Peptide hydrolysis assay with TriFpep (UPLC–MS cleavage ratio); type: in vitro ADME, Paenibacillus polymyxa CICC10580; conditions: Paenibacillus polymyxa; TriFpep 200 nM, substrate 50 μM, 25% PBS buffer pH 7.4, 37 °C, end-point after 24 h incubation, cleavage ratio by UPLC–MS, two independent experiments
Experimental: Having determined that N- or α-methylation of position 9 in the tridecaptins substantially improves resistance to hydrolysis by BogQ, we next tested if modifying the 6 position could overcome TriF hydrolysis at D-Trp5. TriFpep, the soluble periplasmic peptidase domain of TriF, was used in these assays. […] Oct-TriA2(6-Sar) (20) and Oct-TriA2(6-Aib) (21) were synthesized and found to be completely resistant to TriF and retain strong activity (3.13 μg/mL) against E. coli. […] Discovering that a simple substitution of Ser6 with Sar or Aib provides complete TriF resistance with negligible loss in activity is a welcome development.
as §2, with “Reactions were quenched with three volumes of cold methanol (90 μL) and centrifuged at 15 000 rpm for 10 min to precipitate protein. The supernatant (2 μL) was subjected to UPLC–MS analysis for the determination of cleavage ratios.[17] Assays were repeated in two independent experiments and results consistent across both.” left out

E. coli NCTC 12241 = type: cell-based, Escherichia coli; conditions: NCTC 12241, 18 h
Experimental: as §1

Row | Compound | MIC (μg/mL) Sa (S. aureus NCTC 10788) [µg/mL] | metabolised at 1 h, 50 μM (D-peptidase BogQ) [%] | metabolised at 24 h [1] [%] | MIC (μg/mL) Ec (E. coli NCTC 12241) [µg/mL]
1 | CCCCCCCC(=O)N[C@@H](C(=O)N[C@@H](CCN)C(=O)NCC(=O)N[C@H](CO)C(=O)N[C@H](Cc1c[nH]c2ccccc12)C(=O)N[C@@H](CO)C(=O)N[C@@H](CCN)C(=O)N[C@H](CCN)C(=O)N[C@@H](Cc1ccccc1)C(=O)N[C@@H](CCC(=O)O)C(=O)N[C@H](C(=O)N[C@@H](C(=O)N[C@@H](C)C(=O)O)C(C)C)C(C)C)C(C)C [compound 14, Oct-TriA2 (2-Dab)] (Octanoyl-[dV][Dab]G[dS][dW]S[Dab][dDab]FEV[dV]A-OH) | >50 |  |  | 
2 | CCCCCCCC(=O)N[C@@H](C(=O)N[C@H](CCN)C(=O)NCC(=O)N[C@H](CO)C(=O)N[C@H](Cc1c[nH]c2ccccc12)C(=O)N[C@@H](CO)C(=O)N[C@@H](CCN)C(=O)N[C@H](CCN)C(=O)NC(C)(Cc1ccccc1)C(=O)N[C@@H](CCC(=O)O)C(=O)N[C@H](C(=O)N[C@@H](C(=O)N[C@@H](C)C(=O)O)C(C)C)C(C)C)C(C)C (some centres unmarked) [compound 16, Oct-TriA2 (9-αMePhe)] | >50 | 39 |  | 
3 | CCCCCCCC(=O)N[C@@H](C(=O)N[C@H](CCN)C(=O)NCC(=O)N[C@H](CO)C(=O)N[C@H](Cc1c[nH]c2ccccc12)C(=O)N(C)CC(=O)N[C@@H](CCN)C(=O)N[C@H](CCN)C(=O)NC(C)(Cc1ccccc1)C(=O)N[C@@H](CCC(=O)O)C(=O)N[C@H](C(=O)N[C@@H](C(=O)N[C@@H](C)C(=O)O)C(C)C)C(C)C)C(C)C (some centres unmarked) [compound 23, Oct-TriA2 (6-Sar, 9-αMePhe)] | >50 | 39 | 0 | >50
4 | CCCCCCCC(=O)N[C@@H](C(=O)N[C@H](CCN)C(=O)NCC(=O)N[C@H](CO)C(=O)N[C@H](Cc1c[nH]c2ccccc12)C(=O)N(C)CC(=O)N[C@@H](CCN)C(=O)N[C@H](CCN)C(=O)NC(C)(Cc1ccccc1)C(=O)N[C@@H](CCC(=O)O)C(=O)N[C@H](C(=O)N[C@@H](C(=O)N[C@@H](C)C(=O)O)[C@@H](C)CC)C(C)C)C(C)C (some centres unmarked) [compound 25, Oct-TriA2 (6-Sar, 9-αMePhe)] | >50 | 40 | 0 | >50
